Measurements from patent publication US7888355B2, “Compositions and methods for inhibiting growth and metastasis of melanoma” (Burnham Institute for Medical Research, priority 2007, dated 2011).

Experiments:
[1] = tested on: WM115 cells; test: WM115 melanoma cell viability; type: cell-based, human; details: WM115 cells
Description: (§1) Cell lines. Mouse melanoma (SW1) and human melanoma (LU1205) cells were maintained in DMEM supplemented with 10% FBS, L-glutamine and antibiotics. The human melanoma cell lines MEWO and WM115 were maintained in RPMI supplemented with 10% FBS and antibiotics. Primary mouse melanocytes were cultured in F-12 media supplemented with 10% FBS, antibiotics, IBMX (isobuthyl-methylxantine), bovine pituitary extract, and TPA.
(§2) Mitochondrial activity and apoptosis. Cells were exposed to the chemicals for 12-48 hours as indicated in Results. To measure changes in mitochondrial activity reflective of general cell viability, the ATPLITE ATP detection assay was used according to the manufacturer's recommendations (Perkin Elmer). Apoptosis analysis was performed by flow cytometry of PI-stained cells. The percentage of cells to the left of the diploid G0/1 peak, characteristic of hypodiploid cells that have partially lost DNA, was calculated as percentage of apoptotic cells (Bhoumik et al., PNAS 101:4222-7, 2004). Analysis of changes in Caspase 8 expression pattern was performed using immunoblot analysis.
The effects of CSL and AIGA on the human melanoma cell lines WM115 and MEWO were assessed. AIGA reduced the viability of the human melanoma cultures when added at a concentration of 0.5-2 μM (FIG. 5a and FIG. 5c) whereas CSL reduced their viability at a concentration of 0.1 μM-2 μM in WM115 cells (FIG. 5b) and 0.05 μM-2 μM in MeWO cells (FIG. 5d).

[2] = tested on: MeWO cells; test: MeWO melanoma cell viability; type: cell-based, human
Description: as §1, §2
The effects of CSL and AIGA on the human melanoma cell lines WM115 and MEWO were assessed. […]

[3] = Tolerability of administration to mice; type: in vivo, mouse; details: daily administration, doses up to 1 mg/kg
Description: (§3) To assess the ability of CSL and CSL derivatives to affect the tumorigenicity and metastasis of melanoma, the mouse SW1 cell lines were used in syngeneic models. Injection of SW1 melanoma cells subcutaneously into C3H mice was followed by daily injections of CSL intraperitoneally (IP). […] Briefly, SW1 cells that stably express GFP were injected s.c into C3H mice. When the tumor reached the size of 50 mm^3, the vehicle, CSL (1 mg/kg), CA16 (0.5 mg/kg) or CA19 (0.5 mg/kg) were administered i.p, every second day for a period of 24 days. Tumor size was measured at the indicated times. Data presented in FIG. 6b represents two experiments.

[4] = tested on: SW1 tumors; test: SW1 tumor growth in syngeneic C3H mice; type: in vivo, mouse; details: 1 mg/kg i.p. every second day for 24 days
Description: (§4) Tumor growth and metastasis in vivo. GFP-expressing SW1 cells were trypsinized, resuspended in PBS, and injected subcutaneously (1×10^6) into the lower flank of 6 to 7-week-old mice. When tumors reached a size of about 50 mm^3, the indicated compounds (100 μL of the vehicle—10% DMSO, 70% Cremophor/ethanol (3:1), and 20% PBS and 1.0 mg/kg of celastrol or 0.5 mg/kg of the derivatives CA16, CA19) were injected i.p. every alternate day. Body weight and tumor growth were monitored every 2 days. GFP-expressing SW1 tumors were monitored in vivo on shaved mice with a light box illuminated by blue light fiber optics (Lightools Research; Encinitas, Calif.), and imaging was carried out with a digital camera (Nikon D100). Tumors were measured for up to 3 weeks. For metastases studies, LU1205 cells (1×10^6) were injected i.v. into the lateral tail vein of nude mice. At the end of the experiment, the lungs and tumors were excised and weighed. To detect metastatic lesions, lungs were fixed in formalin, embedded in paraffin and subjected to hematoxylin and eosin staining.
as §3

[5] = tested on: Human melanoma LU1205 cells; test: LU1205 lung metastasis in nude mice; type: in vivo, mouse; details: compound every second day, analysis 60 days after injection
Description: as §4
The effect of CSL and CSL derivatives, CA16 and CA19, on the metastatic capacity of melanoma cells was then determined. Human melanoma LU1205 cells were injected into the tail vein of nude mice, followed by administration of the compounds every second day. This approach allows monitoring of changes in the number of lesions formed on the lungs, a primary organ for tumor cell growth under this experimental approach. Analysis performed 60 days following injection determined changes in the number and size of metastatic lesions in each of the experimental groups.

[6] = tested on: SW1 mouse melanoma; test: SW1 metastatic lesions in syngeneic C3H mice; type: in vivo; details: SW1 cells s.c. in C3H mice
Description: as §4
To further assess the impact of these compounds on the development of metastatic lesions, the SW1 mouse melanoma model using the syngeneic C3H strain was employed. Subcutaneous injection of SW1 cells results in tumor formation at the site of injection followed by metastasis to different sites within 6-8 weeks.

Q: Which “concentration at which viability was reduced” value [1] does the source give for `CC(=O)Oc1c2c(c(CC=C(C)C)c3c1C(=O)C1=C[C@@H]4CC5C(C)(C)OC(C/C=C(\C)C(=O)O)(C4=O)[C@@]15O3)OC(C)(CCC=C(C)C)C=C2` (stereo partly drawn) [AIGA, Acetyl isogambogic acid] here?
A: 0.5 to 2 µM

Q: What about the “concentration at which viability was reduced” value [2] of the same molecule?
A: 0.5 to 2 µM

Q: With `CC1=C(O)C(=O)C=C2C1=CC=C1[C@@]2(C)CC[C@@]2(C)[C@@H]3C[C@](C)(C(=O)O)CC[C@]3(C)CC[C@]12C` [Celastrol] as the molecule, how does the “toxicity or discomfort in mice” value [3] read?
A: did not result in toxicity or any noticeable discomfort

Q: What about the “reduction of tumor growth” value [4] of the same molecule?
A: 5 fold

Q: What about the “growth of large, medium and small sized lesions in the lungs” value [5] of the same molecule?
A: efficient in inhibiting growth of large medium and small sized lesions in the lungs

Q: What about the metastatic lesions [6] of the same molecule?
A: potently exhibit the ability to inhibit large as well as small metastatic lesions, with the exception of the 1-2 mm range
